Ki and IC50 data for eight molecules are collected here from ChEMBL document CHEMBL3593243, “Discovery of novel, potent, selective and cellular active ADC type PTP1B inhibitors via fragment-docking-oriented de novel design” (Bioorg Med Chem, 2015).

In assay [1] the target is T1, Tyrosine-protein phosphatase non-receptor type 1 (Homo sapiens, UniProt P18031).
T1 sequence (P18031 whole entry): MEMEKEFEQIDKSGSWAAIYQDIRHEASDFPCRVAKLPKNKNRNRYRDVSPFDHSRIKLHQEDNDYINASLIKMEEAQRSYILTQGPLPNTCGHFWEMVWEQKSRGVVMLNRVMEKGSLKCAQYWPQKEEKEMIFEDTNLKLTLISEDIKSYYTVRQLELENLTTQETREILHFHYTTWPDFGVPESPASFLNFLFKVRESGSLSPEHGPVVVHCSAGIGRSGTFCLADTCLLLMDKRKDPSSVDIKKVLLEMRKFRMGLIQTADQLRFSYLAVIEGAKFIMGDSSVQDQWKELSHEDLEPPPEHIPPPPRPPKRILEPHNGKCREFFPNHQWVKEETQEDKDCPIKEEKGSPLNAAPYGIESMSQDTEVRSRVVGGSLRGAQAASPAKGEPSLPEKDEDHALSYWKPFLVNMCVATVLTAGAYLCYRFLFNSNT
As to the kind of experiment: Inhibition of human PTP1B catalytic domain expressed in Escherichia coli assessed as pNPP hydrolysis measured every 30 secs for 15 mins.

Assay [2] has as its target T1, Tyrosine-protein phosphatase non-receptor type 1. As to the kind of experiment: Inhibition of recombinant PTP1B (unknown origin) assessed as pNPP hydrolysis after 30 mins.
Assay [3] concerns the target T2, Tyrosine-protein phosphatase non-receptor type 2 (Homo sapiens, UniProt P17706).
T2 sequence (P17706 whole entry): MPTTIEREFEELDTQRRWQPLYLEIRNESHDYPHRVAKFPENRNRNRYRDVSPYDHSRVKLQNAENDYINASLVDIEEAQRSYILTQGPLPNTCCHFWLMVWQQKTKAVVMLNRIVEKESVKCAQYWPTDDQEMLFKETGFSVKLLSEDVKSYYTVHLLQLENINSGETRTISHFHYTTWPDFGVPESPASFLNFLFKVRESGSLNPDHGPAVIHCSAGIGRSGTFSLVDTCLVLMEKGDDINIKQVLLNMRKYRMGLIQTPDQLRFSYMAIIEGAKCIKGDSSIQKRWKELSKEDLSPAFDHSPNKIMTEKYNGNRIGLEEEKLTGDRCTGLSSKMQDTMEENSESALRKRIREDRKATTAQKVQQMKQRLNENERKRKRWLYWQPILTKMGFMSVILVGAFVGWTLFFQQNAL
The assay is described as follows: Inhibition of TCPTP (unknown origin) assessed as pNPP hydrolysis after 30 mins.

Assay [4] deals with Tyrosine-protein phosphatase non-receptor type 6 (Homo sapiens, UniProt P29350). The assay is described as follows: Inhibition of SHP1 (unknown origin) using pNPP as substrate.
Sequence of Tyrosine-protein phosphatase non-receptor type 6 (P29350 whole entry): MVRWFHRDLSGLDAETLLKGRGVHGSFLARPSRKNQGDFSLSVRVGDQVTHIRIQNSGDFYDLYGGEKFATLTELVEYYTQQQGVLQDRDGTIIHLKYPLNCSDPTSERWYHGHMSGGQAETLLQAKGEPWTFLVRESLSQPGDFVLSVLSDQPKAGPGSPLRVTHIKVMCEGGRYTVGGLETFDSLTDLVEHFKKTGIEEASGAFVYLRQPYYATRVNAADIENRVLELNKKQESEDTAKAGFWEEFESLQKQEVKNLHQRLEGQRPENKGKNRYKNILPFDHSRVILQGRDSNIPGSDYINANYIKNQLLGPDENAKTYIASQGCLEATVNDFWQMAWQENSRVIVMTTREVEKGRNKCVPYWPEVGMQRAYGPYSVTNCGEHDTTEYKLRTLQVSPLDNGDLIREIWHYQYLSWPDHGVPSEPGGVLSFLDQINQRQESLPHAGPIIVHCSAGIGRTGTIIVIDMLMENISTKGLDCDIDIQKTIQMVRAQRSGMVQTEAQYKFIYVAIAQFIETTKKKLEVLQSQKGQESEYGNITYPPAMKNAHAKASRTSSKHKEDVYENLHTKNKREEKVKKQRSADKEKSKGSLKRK

As to `NC(=O)[C@H](Cc1ccc(C(F)(F)P(=O)(O)O)cc1)NC(=O)[C@H](Cc1ccccc1)NC(=O)Cc1ccc(C(F)(F)P(=O)(O)O)cc1`, the inhibition constant (Ki) in assay [1] stood at 1.7 nM.

Consider `CCOc1cc(NS(C)(=O)=O)c(OCC)cc1CNC(=O)Nc1ccccc1`, for which the concentration for half-maximal inhibition (IC50) in assay [2] is 537 nM.

In the case of `CCOc1cc(NS(C)(=O)=O)c(OCC)cc1CNC(=O)Nc1ccc(C)cc1`, the values for the IC50 in assay [3] and in assay [2] were 5190 nM and 309 nM, respectively.

As to `CCOc1cc(NS(C)(=O)=O)c(OCC)cc1CNC(=O)Nc1ccc(Br)cc1`, the IC50 in assay [3] is 1360 nM; in assay [4], 2310 nM; in assay [2], 212 nM.

For the molecule `CCOc1cc(NS(C)(=O)=O)c(OCC)cc1CNC(=O)Nc1ccc(OC)cc1`, the figures for the half-inhibitory concentration (IC50) in assay [4] and in assay [2] were 9080 nM and 203 nM, respectively.

As for `CCOc1cc(NS(C)(=O)=O)c(OCC)cc1CNC(=O)Nc1cccc(OC)c1`, in assay [2], the IC50 was found to be 2730 nM.

On to `CCOc1cc(NS(C)(=O)=O)c(OCC)cc1CNC(=O)Nc1ccc(OC)c(OC)c1`, for which the IC50 in assay [2] stood at 204 nM.

Consider `CCOc1cc(NS(C)(=O)=O)c(OCC)cc1CNC(=O)NCc1ccccc1`, for which the IC50 in assay [2] stood at 756 nM.
